Data: paper PMC7026418, “The kinase polypharmacology landscape of clinical PARP inhibitors” (Scientific Reports, 2020)
Where two headings read alike, the source gives them in different places.

Columns and labels:
Test in all cases: biochemical
Parameters in all cases: DiscoveRx KINOMEscan active site-directed competition binding; percent of control kinase bound to immobilised ligand
ANKK1 = molecular target: T1, ANKK1 (Homo sapiens, UniProt Q8NFD2)
T1 sequence (Q8NFD2 1-765): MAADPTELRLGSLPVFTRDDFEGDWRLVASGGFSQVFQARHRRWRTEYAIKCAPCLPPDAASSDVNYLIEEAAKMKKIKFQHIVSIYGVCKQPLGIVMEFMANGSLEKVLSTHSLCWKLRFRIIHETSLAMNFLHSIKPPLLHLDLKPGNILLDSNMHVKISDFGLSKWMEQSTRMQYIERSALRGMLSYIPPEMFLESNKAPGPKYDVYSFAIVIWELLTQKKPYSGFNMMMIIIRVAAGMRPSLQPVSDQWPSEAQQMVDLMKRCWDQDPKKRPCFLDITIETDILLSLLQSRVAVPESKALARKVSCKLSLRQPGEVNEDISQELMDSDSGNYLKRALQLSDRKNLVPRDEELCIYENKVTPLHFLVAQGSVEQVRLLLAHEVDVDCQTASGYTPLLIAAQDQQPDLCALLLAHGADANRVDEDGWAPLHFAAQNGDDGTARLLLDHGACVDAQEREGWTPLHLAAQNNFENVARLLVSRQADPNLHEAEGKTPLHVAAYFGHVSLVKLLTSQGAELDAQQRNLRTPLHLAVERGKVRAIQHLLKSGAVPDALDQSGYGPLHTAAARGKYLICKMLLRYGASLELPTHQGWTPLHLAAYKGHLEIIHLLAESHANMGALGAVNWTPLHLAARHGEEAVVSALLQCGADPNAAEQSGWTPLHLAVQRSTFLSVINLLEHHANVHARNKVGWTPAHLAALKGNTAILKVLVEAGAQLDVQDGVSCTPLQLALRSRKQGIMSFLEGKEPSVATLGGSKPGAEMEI

CDKL2 = molecular target: T2, CDKL2 (Homo sapiens, UniProt Q92772)
T2 sequence (Q92772 1-493): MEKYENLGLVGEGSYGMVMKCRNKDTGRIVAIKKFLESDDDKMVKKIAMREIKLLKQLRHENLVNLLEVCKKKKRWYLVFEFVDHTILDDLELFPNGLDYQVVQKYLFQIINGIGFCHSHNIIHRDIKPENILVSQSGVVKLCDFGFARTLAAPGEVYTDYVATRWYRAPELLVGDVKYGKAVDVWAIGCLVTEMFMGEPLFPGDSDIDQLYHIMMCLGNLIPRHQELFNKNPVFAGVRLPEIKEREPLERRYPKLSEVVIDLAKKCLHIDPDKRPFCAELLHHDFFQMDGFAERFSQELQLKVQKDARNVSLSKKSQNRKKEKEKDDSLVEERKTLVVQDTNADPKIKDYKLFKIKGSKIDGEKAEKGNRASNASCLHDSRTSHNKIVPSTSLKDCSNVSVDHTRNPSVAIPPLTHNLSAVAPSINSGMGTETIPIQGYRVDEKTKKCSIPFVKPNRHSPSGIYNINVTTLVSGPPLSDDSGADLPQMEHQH

FYN = FYN (Homo sapiens, UniProt P06241)
FYN, sequence (P06241 whole entry): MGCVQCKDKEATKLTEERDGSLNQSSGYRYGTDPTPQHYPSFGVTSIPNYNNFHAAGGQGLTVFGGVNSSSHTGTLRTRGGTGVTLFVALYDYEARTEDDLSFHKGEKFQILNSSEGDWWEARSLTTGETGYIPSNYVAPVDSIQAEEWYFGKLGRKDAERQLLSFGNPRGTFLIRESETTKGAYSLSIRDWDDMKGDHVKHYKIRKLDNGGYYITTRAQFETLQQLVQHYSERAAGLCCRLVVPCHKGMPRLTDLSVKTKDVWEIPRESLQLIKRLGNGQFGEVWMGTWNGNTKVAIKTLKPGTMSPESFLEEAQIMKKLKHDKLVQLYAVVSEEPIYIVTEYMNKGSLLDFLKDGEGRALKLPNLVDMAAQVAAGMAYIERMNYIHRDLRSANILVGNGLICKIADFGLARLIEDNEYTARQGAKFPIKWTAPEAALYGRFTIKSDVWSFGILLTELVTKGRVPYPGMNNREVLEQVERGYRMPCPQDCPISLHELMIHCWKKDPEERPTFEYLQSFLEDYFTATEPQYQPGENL

IKK-beta = molecular target: T3, IKK-beta (Homo sapiens, UniProt O14920)
T3 construct: gene IKBKB
T3 sequence (O14920 1-756): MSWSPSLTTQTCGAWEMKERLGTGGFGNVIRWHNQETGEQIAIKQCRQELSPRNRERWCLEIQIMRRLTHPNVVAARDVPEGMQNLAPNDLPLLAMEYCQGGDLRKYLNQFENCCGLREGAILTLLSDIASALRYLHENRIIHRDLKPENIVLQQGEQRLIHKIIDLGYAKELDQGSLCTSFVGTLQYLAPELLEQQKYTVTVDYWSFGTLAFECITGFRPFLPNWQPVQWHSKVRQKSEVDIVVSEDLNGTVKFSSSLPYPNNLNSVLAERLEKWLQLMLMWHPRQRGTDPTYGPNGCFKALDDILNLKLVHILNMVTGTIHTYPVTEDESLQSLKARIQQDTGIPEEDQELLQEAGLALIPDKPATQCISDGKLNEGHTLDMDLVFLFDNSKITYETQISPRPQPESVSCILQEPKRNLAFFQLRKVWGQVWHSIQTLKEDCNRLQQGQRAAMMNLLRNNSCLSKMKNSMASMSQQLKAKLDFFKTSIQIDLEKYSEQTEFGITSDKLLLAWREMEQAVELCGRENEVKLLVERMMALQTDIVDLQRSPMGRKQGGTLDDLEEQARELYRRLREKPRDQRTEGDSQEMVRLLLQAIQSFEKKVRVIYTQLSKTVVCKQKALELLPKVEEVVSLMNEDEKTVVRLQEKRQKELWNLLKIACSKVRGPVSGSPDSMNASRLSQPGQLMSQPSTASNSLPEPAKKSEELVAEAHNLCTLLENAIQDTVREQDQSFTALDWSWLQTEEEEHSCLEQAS

NIM1 = molecular target: T4, NIM1 (Homo sapiens, UniProt Q8IY84)
T4 construct: gene NIM1K
T4 sequence (Q8IY84 whole entry): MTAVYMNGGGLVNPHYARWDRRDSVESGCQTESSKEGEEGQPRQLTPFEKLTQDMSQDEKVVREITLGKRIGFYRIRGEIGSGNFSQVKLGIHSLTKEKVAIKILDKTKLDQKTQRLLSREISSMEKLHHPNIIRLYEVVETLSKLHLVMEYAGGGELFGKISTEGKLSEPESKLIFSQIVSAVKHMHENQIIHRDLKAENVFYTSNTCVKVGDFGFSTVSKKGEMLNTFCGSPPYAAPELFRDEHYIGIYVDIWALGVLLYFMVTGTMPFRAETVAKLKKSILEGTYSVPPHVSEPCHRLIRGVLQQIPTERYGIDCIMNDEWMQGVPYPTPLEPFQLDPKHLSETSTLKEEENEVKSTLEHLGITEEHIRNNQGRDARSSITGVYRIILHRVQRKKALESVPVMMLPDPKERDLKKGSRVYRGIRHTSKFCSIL

PFTK1 = molecular target: T5, PFTK1 (Homo sapiens, UniProt O94921)
T5 construct: gene CDK14
T5 sequence (O94921 whole entry): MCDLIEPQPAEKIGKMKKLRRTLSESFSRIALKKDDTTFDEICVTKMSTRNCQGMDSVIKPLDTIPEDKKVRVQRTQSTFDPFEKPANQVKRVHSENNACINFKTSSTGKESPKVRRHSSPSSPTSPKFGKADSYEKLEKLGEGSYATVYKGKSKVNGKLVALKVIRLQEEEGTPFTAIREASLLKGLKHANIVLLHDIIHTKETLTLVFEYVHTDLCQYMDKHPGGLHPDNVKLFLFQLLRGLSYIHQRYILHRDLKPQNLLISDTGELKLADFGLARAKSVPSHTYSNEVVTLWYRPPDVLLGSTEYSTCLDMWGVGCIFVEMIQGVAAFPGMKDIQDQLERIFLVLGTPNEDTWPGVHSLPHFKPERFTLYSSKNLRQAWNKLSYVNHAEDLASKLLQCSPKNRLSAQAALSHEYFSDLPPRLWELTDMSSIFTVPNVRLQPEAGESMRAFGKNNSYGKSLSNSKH

PRKCD = PRKCD (Homo sapiens, UniProt Q05655)
PRKCD, sequence (Q05655 whole entry): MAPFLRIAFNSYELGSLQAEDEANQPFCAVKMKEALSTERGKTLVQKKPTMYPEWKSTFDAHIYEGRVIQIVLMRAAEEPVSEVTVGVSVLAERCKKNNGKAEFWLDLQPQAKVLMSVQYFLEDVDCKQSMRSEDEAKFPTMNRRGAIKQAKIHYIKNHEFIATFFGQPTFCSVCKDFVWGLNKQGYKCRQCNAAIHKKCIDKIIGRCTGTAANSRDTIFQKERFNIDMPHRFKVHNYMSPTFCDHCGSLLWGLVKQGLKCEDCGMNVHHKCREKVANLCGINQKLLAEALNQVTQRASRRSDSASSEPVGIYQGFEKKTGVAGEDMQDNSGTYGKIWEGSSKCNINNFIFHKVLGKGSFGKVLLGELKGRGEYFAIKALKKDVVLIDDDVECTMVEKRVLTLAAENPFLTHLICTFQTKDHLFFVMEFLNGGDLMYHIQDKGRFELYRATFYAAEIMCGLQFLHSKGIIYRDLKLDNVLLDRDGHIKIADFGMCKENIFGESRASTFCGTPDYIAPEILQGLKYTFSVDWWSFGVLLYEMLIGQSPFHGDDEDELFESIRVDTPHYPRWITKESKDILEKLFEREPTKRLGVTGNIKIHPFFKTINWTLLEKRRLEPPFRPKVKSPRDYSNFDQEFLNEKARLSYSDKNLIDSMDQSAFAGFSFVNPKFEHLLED

ROCK2 = ROCK2 (Homo sapiens, UniProt O75116)
ROCK2, sequence (O75116 whole entry): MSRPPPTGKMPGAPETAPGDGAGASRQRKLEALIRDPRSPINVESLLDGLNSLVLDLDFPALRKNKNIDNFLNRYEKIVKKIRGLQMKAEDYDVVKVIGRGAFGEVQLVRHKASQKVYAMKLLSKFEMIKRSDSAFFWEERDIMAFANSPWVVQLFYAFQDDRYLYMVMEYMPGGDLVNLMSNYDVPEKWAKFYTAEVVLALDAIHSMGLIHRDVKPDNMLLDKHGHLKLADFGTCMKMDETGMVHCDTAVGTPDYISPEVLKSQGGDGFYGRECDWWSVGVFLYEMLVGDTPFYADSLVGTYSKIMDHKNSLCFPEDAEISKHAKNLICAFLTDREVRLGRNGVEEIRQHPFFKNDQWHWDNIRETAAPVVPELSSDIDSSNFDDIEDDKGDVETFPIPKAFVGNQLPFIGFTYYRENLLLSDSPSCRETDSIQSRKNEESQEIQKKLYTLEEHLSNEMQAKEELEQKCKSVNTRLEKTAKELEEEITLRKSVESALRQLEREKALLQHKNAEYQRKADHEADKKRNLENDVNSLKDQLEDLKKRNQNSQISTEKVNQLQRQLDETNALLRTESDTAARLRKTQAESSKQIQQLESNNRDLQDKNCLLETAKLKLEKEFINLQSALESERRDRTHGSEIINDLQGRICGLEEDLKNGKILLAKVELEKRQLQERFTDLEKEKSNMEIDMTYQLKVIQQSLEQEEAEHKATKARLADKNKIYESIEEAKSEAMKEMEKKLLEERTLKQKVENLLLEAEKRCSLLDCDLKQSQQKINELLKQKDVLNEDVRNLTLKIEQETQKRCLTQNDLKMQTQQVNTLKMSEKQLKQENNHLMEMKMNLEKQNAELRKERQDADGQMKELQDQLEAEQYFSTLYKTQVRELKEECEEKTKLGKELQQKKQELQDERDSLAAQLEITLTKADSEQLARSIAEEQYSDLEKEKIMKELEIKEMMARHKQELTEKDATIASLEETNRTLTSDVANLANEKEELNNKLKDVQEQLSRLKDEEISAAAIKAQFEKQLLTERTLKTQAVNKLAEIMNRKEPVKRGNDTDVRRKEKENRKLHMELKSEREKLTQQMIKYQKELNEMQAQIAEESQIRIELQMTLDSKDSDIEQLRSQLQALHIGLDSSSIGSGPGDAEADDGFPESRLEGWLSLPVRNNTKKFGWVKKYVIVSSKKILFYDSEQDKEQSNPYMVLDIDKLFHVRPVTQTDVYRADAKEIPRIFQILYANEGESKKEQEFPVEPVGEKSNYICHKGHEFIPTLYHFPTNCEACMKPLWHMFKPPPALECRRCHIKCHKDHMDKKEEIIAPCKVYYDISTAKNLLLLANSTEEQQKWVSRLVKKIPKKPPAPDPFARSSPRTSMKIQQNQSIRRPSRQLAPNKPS

ZAK = molecular target: T6, ZAK (Homo sapiens, UniProt Q9NYL2)
T6 construct: gene MAP3K20
T6 sequence (Q9NYL2 whole entry): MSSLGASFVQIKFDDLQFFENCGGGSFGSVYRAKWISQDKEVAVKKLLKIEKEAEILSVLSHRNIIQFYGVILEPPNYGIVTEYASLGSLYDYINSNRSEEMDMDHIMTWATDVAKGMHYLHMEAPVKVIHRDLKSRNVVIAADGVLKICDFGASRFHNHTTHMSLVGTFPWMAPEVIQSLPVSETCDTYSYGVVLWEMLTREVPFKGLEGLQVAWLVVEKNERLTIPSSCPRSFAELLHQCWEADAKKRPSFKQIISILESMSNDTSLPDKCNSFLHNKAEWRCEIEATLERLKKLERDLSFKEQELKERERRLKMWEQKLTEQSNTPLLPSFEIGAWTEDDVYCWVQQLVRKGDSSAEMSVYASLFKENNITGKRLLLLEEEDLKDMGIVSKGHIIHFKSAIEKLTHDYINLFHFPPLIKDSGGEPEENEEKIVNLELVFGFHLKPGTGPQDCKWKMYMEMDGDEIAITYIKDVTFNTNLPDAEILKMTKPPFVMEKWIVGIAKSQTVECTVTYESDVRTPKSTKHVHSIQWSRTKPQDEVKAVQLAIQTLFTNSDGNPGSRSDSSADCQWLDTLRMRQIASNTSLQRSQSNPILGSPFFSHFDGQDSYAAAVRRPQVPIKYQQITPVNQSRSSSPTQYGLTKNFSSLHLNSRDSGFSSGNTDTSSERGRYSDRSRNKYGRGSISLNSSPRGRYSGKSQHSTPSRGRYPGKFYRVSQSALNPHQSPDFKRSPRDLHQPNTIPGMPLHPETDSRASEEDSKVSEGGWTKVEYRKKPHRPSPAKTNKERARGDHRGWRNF

p38-alpha = molecular target: T7, p38-alpha (Homo sapiens, UniProt Q16539)
T7 construct: gene MAPK14
T7 sequence (Q16539 whole entry): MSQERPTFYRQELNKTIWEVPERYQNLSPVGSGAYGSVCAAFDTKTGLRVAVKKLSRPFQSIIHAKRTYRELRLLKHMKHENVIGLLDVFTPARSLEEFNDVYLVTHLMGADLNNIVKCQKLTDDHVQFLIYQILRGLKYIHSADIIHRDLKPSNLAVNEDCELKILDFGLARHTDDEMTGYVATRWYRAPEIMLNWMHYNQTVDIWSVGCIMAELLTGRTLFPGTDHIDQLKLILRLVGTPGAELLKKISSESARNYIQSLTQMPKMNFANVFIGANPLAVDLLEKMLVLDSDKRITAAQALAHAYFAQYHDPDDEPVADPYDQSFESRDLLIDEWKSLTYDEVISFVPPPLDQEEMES

[1] = read-out: Niraparib (MK-4827) / %Ctrl @ 10000nM
[2] = read-out: Olaparib / %Ctrl @ 10000nM
[3] = read-out: Rucaparib / %Ctrl @ 10000nM, binding competition, % of control
[4] = read-out: Talazoparib (BMN 673) / %Ctrl @ 10000nM

NC(=O)c1cccc2cn(-c3ccc([C@@H]4CCCNC4)cc3)nc12 [Niraparib]
percent of control binding at 10 µM (ANKK1; [1]): 100% | percent of control binding at 10 µM (CDKL2; [1]): 23% | percent of control binding at 10 µM (FYN; [1]): 88% | percent of control binding at 10 µM (IKK-beta; [1]): 100% | percent of control binding at 10 µM (NIM1; [1]): 100% | percent of control binding at 10 µM (PFTK1; [1]): 88% | percent of control binding at 10 µM (PRKCD; [1]): 93% | percent of control binding at 10 µM (ROCK2; [1]): 73% | percent of control binding at 10 µM (ZAK; [1]): 88% | percent of control binding at 10 µM (p38-alpha; [1]): 95%

O=C(c1cc(Cc2n[nH]c(=O)c3ccccc23)ccc1F)N1CCN(C(=O)C2CC2)CC1 [Olaparib]
percent of control binding at 10 µM (ANKK1; [2]): 90% | percent of control binding at 10 µM (CDKL2; [2]): 99% | percent of control binding at 10 µM (FYN; [2]): 72% | percent of control binding at 10 µM (IKK-beta; [2]): 72% | percent of control binding at 10 µM (NIM1; [2]): 83% | percent of control binding at 10 µM (PFTK1; [2]): 100% | percent of control binding at 10 µM (PRKCD; [2]): 95% | percent of control binding at 10 µM (ROCK2; [2]): 75% | percent of control binding at 10 µM (ZAK; [2]): 94% | percent of control binding at 10 µM (p38-alpha; [2]): 100%

CNCc1ccc(-c2[nH]c3cc(F)cc4c3c2CCNC4=O)cc1 [Rucaparib]
percent of control binding at 10 µM (ANKK1; [3]): 71% | percent of control binding at 10 µM (CDKL2; [3]): 59% | percent of control binding at 10 µM (FYN; [3]): 100% | percent of control binding at 10 µM (IKK-beta; [3]): 35% | percent of control binding at 10 µM (NIM1; [3]): 71% | percent of control binding at 10 µM (PFTK1; [3]): 86% | percent of control binding at 10 µM (PRKCD; [3]): 83% | percent of control binding at 10 µM (ROCK2; [3]): 85% | percent of control binding at 10 µM (ZAK; [3]): 93% | percent of control binding at 10 µM (p38-alpha; [3]): 90%

Cn1ncnc1[C@H]1c2n[nH]c(=O)c3cc(F)cc(c23)N[C@@H]1c1ccc(F)cc1 [Talazoparib]
percent of control binding at 10 µM (ANKK1; [4]): 100% | percent of control binding at 10 µM (CDKL2; [4]): 100% | percent of control binding at 10 µM (FYN; [4]): 100% | percent of control binding at 10 µM (IKK-beta; [4]): 95% | percent of control binding at 10 µM (NIM1; [4]): 79% | percent of control binding at 10 µM (PFTK1; [4]): 89% | percent of control binding at 10 µM (PRKCD; [4]): 86% | percent of control binding at 10 µM (ROCK2; [4]): 100% | percent of control binding at 10 µM (ZAK; [4]): 97% | percent of control binding at 10 µM (p38-alpha; [4]): 83%
